Reference: patent publication US20100267561A1, “HERBICIDAL PYRIDAZINONE DERIVATIVES” (priority 2007, published 2010)

Columns and labels:
Assay in all cases: Test E pre-/postemergence plant response
Type in all cases: in vivo
[1] = tested on: large crabgrass (Digitaria sanguinalis); conditions: scale 0 to 100
Description: (§1) Seeds of plant species selected from bermudagrass (Cynodon dactylon), Surinam grass (Brachiaria decumbens), large crabgrass (Digitaria sanguinalis), green foxtail (Setaria viridis), goosegrass (Eleusine indica), johnsongrass (Sorghum halepense), kochia (Kochia scoparia), pitted morningglory (Ipomoea lacunosa), purple nutsedge (Cyperus rotundus), common ragweed (Ambrosia elation), black mustard (Brassica nigra), guineagrass (Panicum maximum), dallisgrass (Paspalum dilatatum), barnyardgrass (Echinochloa crus-galli), southern (S.) sandbur (Cenchrus echinatus), common sowthistle (Sonchus oleraceous), prickly sida (Sida spinosa), Italian ryegrass (Lolium multiflorum), common purslane (Portulaca oleracea), broadleaf signalgrass (Brachiaria platyphylla), common groundsel (Senecio vulgaris), common chickweed (Stellaria media), Virginia (V.) dayflower (Commelina virginica), tropical (T.) spiderwort (Commelina benghalensis), annual bluegrass (Poa annua), naked crabgrass (Digitaria nuda), itchgrass (Rottboellia cochinchinensis), quackgrass (Elytrigia repens), Canada horseweed (Conyza canadensis), field bindweed (Convolvulus arvensis), spanishneedles (Bidens bipinnata), common mallow (Malva sylvestris) and Russian thistle (Salsola kali) were planted and treated preemergence with test chemicals formulated in a non-phytotoxic solvent mixture which included a surfactant. At the same time, plants selected from these weed species were treated with postemergence applications of some of the test chemicals formulated in the same manner. Plants ranged in height from 2 to 18 cm (1- to 4-leaf stage) for postemergence treatments.
(§2) Treated plants and controls were maintained in a greenhouse for 14 to 21 days, after which time all species were compared to controls and visually evaluated. Plant response ratings, summarized in Table E, are based on a scale of 0 to 100 where 0 is no effect and 100 is complete control. A dash (-) response means no test result.

[2] = tested on: surinam grass (Brachiaria decumbens); conditions: scale 0 to 100
Description: as §1, §2

[3] = tested on: broadleaf signalgrass (Brachiaria platyphylla); conditions: scale 0 to 100
Description: as §1, §2

[4] = tested on: johnsongrass (Sorghum halepense); conditions: scale 0 to 100
Description: as §1, §2

[5] = tested on: green foxtail (Setaria viridis); conditions: scale 0 to 100
Description: as §1, §2

[6] = tested on: naked crabgrass (Digitaria nuda); conditions: scale 0 to 100
Description: as §1, §2

[7] = tested on: annual bluegrass (Poa annua); conditions: scale 0 to 100
Description: as §1, §2

[8] = tested on: common chickweed (Stellaria media); conditions: Postemergence, scale 0 to 100
Description: as §1, §2

[9] = tested on: itchgrass (Rottboellia cochinchinensis); conditions: scale 0 to 100
Description: as §1, §2

[10] = tested on: quackgrass (Elytrigia repens); conditions: scale 0 to 100
Description: as §1, §2

[11] = tested on: bermudagrass (Cynodon dactylon); conditions: scale 0 to 100
Description: as §1, §2

[12] = tested on: common mallow (Malva sylvestris); conditions: scale 0 to 100
Description: as §1, §2

[13] = tested on: purple nutsedge (Cyperus rotundus); conditions: scale 0 to 100
Description: as §1, §2

[14] = tested on: Italian ryegrass (Lolium multiflorum); conditions: scale 0 to 100
Description: as §1, §2

[15] = tested on: pitted morningglory (Ipomoea lacunosa); conditions: scale 0 to 100
Description: as §1, §2

Cn1ncc(O)c(-c2nn(-c3ccc(Cl)cc3)cc2Br)c1=O [Compound 31]
0: Plant response rating, Crabgrass, Large ([1]; 8 g ai/ha, Preemergence) | Plant response rating, Foxtail, Green ([5]; 8 g ai/ha, Preemergence) | Plant response rating, Crabgrass, Naked ([6]; 8 g ai/ha, Preemergence) | Plant response rating, Bluegrass ([7]; 8 g ai/ha, Preemergence) | Plant response rating, Bluegrass ([7]; 16 g ai/ha, Preemergence) | Plant response rating, Bluegrass ([7]; 31 g ai/ha, Preemergence) | Plant response rating, Bluegrass ([7]; 62 g ai/ha, Preemergence) | Plant response rating, Bluegrass ([7]; Postemergence, 8 g ai/ha) | Plant response rating, Bluegrass ([7]; Postemergence, 16 g ai/ha) | Plant response rating, Bluegrass ([7]; Postemergence, 31 g ai/ha) | Plant response rating, Chickweed ([8]; 8 g ai/ha) | Plant response rating, Chickweed ([8]; 16 g ai/ha) | Plant response rating, Chickweed ([8]; 31 g ai/ha) | Plant response rating, Itchgrass ([9]; 16 g ai/ha, Preemergence) | Plant response rating, Quackgrass ([10]; 16 g ai/ha, Preemergence) | Plant response rating, Quackgrass ([10]; Postemergence, 8 g ai/ha) | Plant response rating, Bermudagrass ([11]; 8 g ai/ha, Preemergence) | Plant response rating, Mallow ([12]; 31 g ai/ha, Preemergence) | Plant response rating, Mallow ([12]; 62 g ai/ha, Preemergence) | Plant response rating, Mallow ([12]; Postemergence, 8 g ai/ha) | Plant response rating, Mallow ([12]; Postemergence, 16 g ai/ha) | Plant response rating, Mallow ([12]; Postemergence, 31 g ai/ha) | Plant response rating, Mallow ([12]; Postemergence, 62 g ai/ha) | Plant response rating, Nutsedge, Purple ([13]; 16 g ai/ha, Preemergence) | Plant response rating, Nutsedge, Purple ([13]; 31 g ai/ha, Preemergence) | Plant response rating, Nutsedge, Purple ([13]; 62 g ai/ha, Preemergence) | Plant response rating, Nutsedge, Purple ([13]; Postemergence, 8 g ai/ha) | Plant response rating, Nutsedge, Purple ([13]; Postemergence, 16 g ai/ha) | Plant response rating, Nutsedge, Purple ([13]; Postemergence, 31 g ai/ha) | Plant response rating, Nutsedge, Purple ([13]; Postemergence, 62 g ai/ha) | Plant response rating, Morningglory ([15]; 16 g ai/ha, Preemergence) | Plant response rating, Morningglory ([15]; 31 g ai/ha, Preemergence) | Plant response rating, Morningglory ([15]; 62 g ai/ha, Preemergence) | Plant response rating, Morningglory ([15]; Postemergence, 8 g ai/ha) | Plant response rating, Morningglory ([15]; Postemergence, 16 g ai/ha) | Plant response rating, Morningglory ([15]; Postemergence, 31 g ai/ha) | Plant response rating, Morningglory ([15]; Postemergence, 62 g ai/ha)
40: Plant response rating, Crabgrass, Large ([1]; 16 g ai/ha, Preemergence) | Plant response rating, Johnsongrass ([4]; Postemergence, 8 g ai/ha)
65: Plant response rating, Crabgrass, Large ([1]; Postemergence, 16 g ai/ha) | Plant response rating, Signalgrass ([3]; 31 g ai/ha, Preemergence) | Plant response rating, Signalgrass ([3]; Postemergence, 8 g ai/ha) | Plant response rating, Signalgrass ([3]; Postemergence, 16 g ai/ha) | Plant response rating, Crabgrass, Naked ([6]; Postemergence, 16 g ai/ha) | Plant response rating, Itchgrass ([9]; Postemergence, 31 g ai/ha) | Plant response rating, Quackgrass ([10]; 62 g ai/ha, Preemergence) | Plant response rating, Bermudagrass ([11]; Postemergence, 8 g ai/ha) | Plant response rating, Ryegrass, Italian ([14]; 16 g ai/ha, Preemergence)
70: Plant response rating, Foxtail, Green ([5]; Postemergence, 31 g ai/ha) | Plant response rating, Itchgrass ([9]; Postemergence, 62 g ai/ha)
90: Plant response rating, Foxtail, Green ([5]; 62 g ai/ha, Preemergence) | Plant response rating, Crabgrass, Naked ([6]; Postemergence, 62 g ai/ha) | Plant response rating, Bermudagrass ([11]; Postemergence, 31 g ai/ha) | Plant response rating, Ryegrass, Italian ([14]; 31 g ai/ha, Preemergence) | Plant response rating, Ryegrass, Italian ([14]; Postemergence, 62 g ai/ha)
25: Plant response rating, Johnsongrass ([4]; 16 g ai/ha, Preemergence)
50: Plant response rating, Surinam Grass ([2]; Postemergence, 16 g ai/ha) | Plant response rating, Surinam Grass ([2]; Postemergence, 31 g ai/ha) | Plant response rating, Foxtail, Green ([5]; Postemergence, 8 g ai/ha) | Plant response rating, Crabgrass, Naked ([6]; 16 g ai/ha, Preemergence) | Plant response rating, Itchgrass ([9]; Postemergence, 8 g ai/ha) | Plant response rating, Quackgrass ([10]; Postemergence, 62 g ai/ha) | Plant response rating, Ryegrass, Italian ([14]; Postemergence, 31 g ai/ha)
15: Plant response rating, Signalgrass ([3]; 16 g ai/ha, Preemergence)
10: Plant response rating, Bluegrass ([7]; Postemergence, 62 g ai/ha)
98: Plant response rating, Johnsongrass ([4]; 62 g ai/ha, Preemergence) | Plant response rating, Crabgrass, Naked ([6]; 31 g ai/ha, Preemergence)
60: Plant response rating, Crabgrass, Large ([1]; Postemergence, 8 g ai/ha) | Plant response rating, Johnsongrass ([4]; Postemergence, 16 g ai/ha) | Plant response rating, Foxtail, Green ([5]; 31 g ai/ha, Preemergence) | Plant response rating, Foxtail, Green ([5]; Postemergence, 16 g ai/ha) | Plant response rating, Itchgrass ([9]; Postemergence, 16 g ai/ha)
95: Plant response rating, Crabgrass, Large ([1]; 62 g ai/ha, Preemergence) | Plant response rating, Surinam Grass ([2]; 31 g ai/ha, Preemergence) | Plant response rating, Surinam Grass ([2]; 62 g ai/ha, Preemergence) | Plant response rating, Bermudagrass ([11]; 31 g ai/ha, Preemergence) | Plant response rating, Bermudagrass ([11]; Postemergence, 62 g ai/ha)
100: Plant response rating, Johnsongrass ([4]; Postemergence, 62 g ai/ha) | Plant response rating, Crabgrass, Naked ([6]; 62 g ai/ha, Preemergence) | Plant response rating, Bermudagrass ([11]; 62 g ai/ha, Preemergence) | Plant response rating, Ryegrass, Italian ([14]; 62 g ai/ha, Preemergence)
80: Plant response rating, Crabgrass, Large ([1]; Postemergence, 62 g ai/ha) | Plant response rating, Signalgrass ([3]; 62 g ai/ha, Preemergence) | Plant response rating, Johnsongrass ([4]; 31 g ai/ha, Preemergence)
35: Plant response rating, Ryegrass, Italian ([14]; Postemergence, 16 g ai/ha)
20: Plant response rating, Surinam Grass ([2]; 16 g ai/ha, Preemergence) | Plant response rating, Surinam Grass ([2]; Postemergence, 8 g ai/ha) | Plant response rating, Quackgrass ([10]; 31 g ai/ha, Preemergence)
30: Plant response rating, Crabgrass, Naked ([6]; Postemergence, 8 g ai/ha) | Plant response rating, Quackgrass ([10]; Postemergence, 16 g ai/ha) | Plant response rating, Quackgrass ([10]; Postemergence, 31 g ai/ha) | Plant response rating, Ryegrass, Italian ([14]; Postemergence, 8 g ai/ha)
5: Plant response rating, Foxtail, Green ([5]; 16 g ai/ha, Preemergence)
75: Plant response rating, Crabgrass, Large ([1]; 31 g ai/ha, Preemergence) | Plant response rating, Crabgrass, Large ([1]; Postemergence, 31 g ai/ha) | Plant response rating, Surinam Grass ([2]; Postemergence, 62 g ai/ha) | Plant response rating, Signalgrass ([3]; Postemergence, 31 g ai/ha) | Plant response rating, Signalgrass ([3]; Postemergence, 62 g ai/ha) | Plant response rating, Johnsongrass ([4]; Postemergence, 31 g ai/ha) | Plant response rating, Foxtail, Green ([5]; Postemergence, 62 g ai/ha) | Plant response rating, Crabgrass, Naked ([6]; Postemergence, 31 g ai/ha) | Plant response rating, Itchgrass ([9]; 31 g ai/ha, Preemergence) | Plant response rating, Itchgrass ([9]; 62 g ai/ha, Preemergence) | Plant response rating, Bermudagrass ([11]; 16 g ai/ha, Preemergence) | Plant response rating, Bermudagrass ([11]; Postemergence, 16 g ai/ha)
